pIC50, pKi: −log10 of the molar value.

Series [1] deals with Beta-2 adrenergic receptor (Homo sapiens, UniProt P07550). In words: DRUGMATRIX: Adrenergic beta2 radioligand binding (ligand: [3H] CGP-12177). In kind it is cell membranes, Membrane. The following applies: cho; Not Active = under 50% inhibition at 10 µM.
A short description of series [2]: DRUGMATRIX: Atrial Natriuretic Factor (ANF) radioligand binding (ligand: [125I] ANF (rat)). In kind it is cell membranes, Cavia porcellus, Dunkin-Hartley, Adrenal gland, Membrane. The following applies: Not Active = under 50% inhibition at 10 µM.
Series [3] concerns the target T1, 5-hydroxytryptamine receptor 2C (Homo sapiens, UniProt P28335).
T1 sequence (P28335 whole entry): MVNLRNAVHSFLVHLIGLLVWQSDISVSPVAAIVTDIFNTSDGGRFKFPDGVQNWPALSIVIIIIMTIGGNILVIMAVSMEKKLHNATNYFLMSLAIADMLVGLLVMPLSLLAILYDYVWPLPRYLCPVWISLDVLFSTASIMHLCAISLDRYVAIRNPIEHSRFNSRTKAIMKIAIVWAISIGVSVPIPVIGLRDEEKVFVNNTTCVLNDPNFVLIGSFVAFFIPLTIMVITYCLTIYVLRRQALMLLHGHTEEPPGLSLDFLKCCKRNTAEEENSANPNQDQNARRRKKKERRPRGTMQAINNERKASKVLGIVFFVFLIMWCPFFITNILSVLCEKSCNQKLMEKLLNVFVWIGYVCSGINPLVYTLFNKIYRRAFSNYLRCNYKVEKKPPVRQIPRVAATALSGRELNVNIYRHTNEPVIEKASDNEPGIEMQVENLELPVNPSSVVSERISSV
Nature of the series: DRUGMATRIX: Serotonin (5-Hydroxytryptamine) 5-HT2C radioligand binding (ligand: [3H] Mesulergine). In kind it is cell membranes, CHO-K1, Membrane. The following applies: Not Active = under 50% inhibition at 10 µM; for IC50: cho-k1.

Series [4] is described as follows: DRUGMATRIX: Tumor Necrosis Factor (TNF), Non-Selective radioligand binding (ligand: [125I] TNF-alpha). In kind it is cell membranes, Membrane. The following applies: u-937; Not Active = under 50% inhibition at 10 µM.
In series [5] the target is Prostaglandin G/H synthase 1 (Homo sapiens, UniProt P23219). Nature of the series: biochemical. In kind it is tissue-based, Platelet. The following applies: platelet.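 Further: inhibition of COX-1 enzyme activity, with arachidonic acid supplied as substrate; in other assays of this panel Not Active means under 50% inhibition at 10 µM.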
Prostaglandin G/H synthase 1, sequence (P23219 whole entry): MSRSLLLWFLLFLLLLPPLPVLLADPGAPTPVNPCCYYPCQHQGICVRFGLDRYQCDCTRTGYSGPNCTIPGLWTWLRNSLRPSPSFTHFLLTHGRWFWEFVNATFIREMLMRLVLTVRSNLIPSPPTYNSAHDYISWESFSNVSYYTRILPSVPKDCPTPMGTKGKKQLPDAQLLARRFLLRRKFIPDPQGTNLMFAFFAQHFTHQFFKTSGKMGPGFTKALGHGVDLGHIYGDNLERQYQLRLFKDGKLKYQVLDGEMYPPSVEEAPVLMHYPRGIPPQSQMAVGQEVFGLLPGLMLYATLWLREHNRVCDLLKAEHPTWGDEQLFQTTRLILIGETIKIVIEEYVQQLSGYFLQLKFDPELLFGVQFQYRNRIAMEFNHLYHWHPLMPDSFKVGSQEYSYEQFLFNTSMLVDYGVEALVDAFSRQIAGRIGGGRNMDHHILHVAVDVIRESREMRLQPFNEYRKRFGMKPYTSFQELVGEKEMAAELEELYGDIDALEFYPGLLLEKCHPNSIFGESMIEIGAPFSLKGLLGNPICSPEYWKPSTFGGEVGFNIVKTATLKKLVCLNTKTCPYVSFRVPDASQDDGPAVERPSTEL
Series [6] can be described thus: DRUGMATRIX: Glutamate, NMDA, Agonism radioligand binding (ligand: [3H] CGP-39653). In kind it is cell membranes, Rattus norvegicus, Wistar, Cerebral cortex, Membrane. Conditions: Not Active = under 50% inhibition at 10 µM.
A short description of series [7]: DRUGMATRIX: Nicotinic Acetylcholine radioligand binding (ligand: [125I] Epibatidine). Conditions: imr-32; Not Active = under 50% inhibition at 10 µM. In kind it is cell membranes, Membrane.
Series [8] addresses Platelet-activating factor receptor (Homo sapiens, UniProt P25105). Nature of the series: biochemical. In kind it is tissue-based. The following applies: platelet.
For series [9], the target named is T2, Angiotensin-converting enzyme (Oryctolagus cuniculus, UniProt P12822).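 Further: enzymatic inhibition of angiotensin-converting enzyme measured with FAPGG as the substrate; in other assays of this panel Not Active means under 50% inhibition at 10 µM.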
T2 sequence (P12822 whole entry): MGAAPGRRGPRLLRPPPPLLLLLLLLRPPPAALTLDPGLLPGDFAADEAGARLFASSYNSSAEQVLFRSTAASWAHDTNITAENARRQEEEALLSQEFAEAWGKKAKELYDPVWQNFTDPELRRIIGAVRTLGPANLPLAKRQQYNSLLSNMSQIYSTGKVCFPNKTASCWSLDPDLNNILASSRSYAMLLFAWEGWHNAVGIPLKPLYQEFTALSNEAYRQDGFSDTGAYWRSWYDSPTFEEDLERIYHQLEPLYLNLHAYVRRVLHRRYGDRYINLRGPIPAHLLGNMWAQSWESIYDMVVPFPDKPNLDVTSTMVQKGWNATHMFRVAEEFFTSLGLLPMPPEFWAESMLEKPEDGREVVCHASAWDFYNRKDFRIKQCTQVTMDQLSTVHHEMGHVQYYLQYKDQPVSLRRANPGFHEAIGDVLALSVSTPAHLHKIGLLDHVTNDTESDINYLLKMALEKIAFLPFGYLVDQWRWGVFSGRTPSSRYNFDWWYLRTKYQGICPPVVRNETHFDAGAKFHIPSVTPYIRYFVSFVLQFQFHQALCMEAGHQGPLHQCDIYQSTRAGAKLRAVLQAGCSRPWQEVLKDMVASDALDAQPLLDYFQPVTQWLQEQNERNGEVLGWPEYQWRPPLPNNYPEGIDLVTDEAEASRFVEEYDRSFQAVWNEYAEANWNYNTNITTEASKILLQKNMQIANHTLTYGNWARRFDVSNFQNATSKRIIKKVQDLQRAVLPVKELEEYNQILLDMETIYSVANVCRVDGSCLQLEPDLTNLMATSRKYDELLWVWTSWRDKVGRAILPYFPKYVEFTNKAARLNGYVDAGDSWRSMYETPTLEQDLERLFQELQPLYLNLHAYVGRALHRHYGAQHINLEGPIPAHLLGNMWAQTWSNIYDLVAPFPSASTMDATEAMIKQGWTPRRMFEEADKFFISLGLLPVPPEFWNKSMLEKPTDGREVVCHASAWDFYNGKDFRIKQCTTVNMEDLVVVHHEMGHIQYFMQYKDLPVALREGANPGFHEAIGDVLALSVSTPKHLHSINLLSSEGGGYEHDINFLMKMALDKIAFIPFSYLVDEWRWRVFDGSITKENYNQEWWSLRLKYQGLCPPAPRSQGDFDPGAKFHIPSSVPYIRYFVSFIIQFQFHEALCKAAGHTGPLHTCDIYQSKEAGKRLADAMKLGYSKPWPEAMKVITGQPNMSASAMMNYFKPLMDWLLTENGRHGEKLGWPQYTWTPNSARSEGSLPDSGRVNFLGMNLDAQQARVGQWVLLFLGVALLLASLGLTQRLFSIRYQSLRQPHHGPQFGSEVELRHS
In words: biochemical. In kind it is tissue-based, Lung.

The target in the next series is T3, Caspase-1 (Homo sapiens, UniProt P29466).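 Further: Caspase-1 enzyme inhibition assay with a peptide substrate; in other assays of this panel Not Active means under 50% inhibition at 10 µM.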
T3 sequence (P29466 whole entry): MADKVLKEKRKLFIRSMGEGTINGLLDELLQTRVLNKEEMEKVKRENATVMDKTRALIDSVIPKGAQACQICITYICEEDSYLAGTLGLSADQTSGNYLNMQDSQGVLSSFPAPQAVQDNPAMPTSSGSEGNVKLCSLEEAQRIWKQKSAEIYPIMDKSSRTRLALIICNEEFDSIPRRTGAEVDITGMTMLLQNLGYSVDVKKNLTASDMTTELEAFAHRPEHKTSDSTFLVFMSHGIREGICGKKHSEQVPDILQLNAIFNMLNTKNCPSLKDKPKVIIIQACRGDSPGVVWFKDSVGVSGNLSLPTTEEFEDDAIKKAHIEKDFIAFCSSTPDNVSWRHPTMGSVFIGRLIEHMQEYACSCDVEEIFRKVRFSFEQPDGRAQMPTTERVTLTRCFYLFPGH
The arrangement: species or system Escherichia coli.

Series [10] deals with Protein kinase C alpha type (Homo sapiens, UniProt P17252). In kind it is cell-based. The following applies: sf9.
A further series concerns the target Cytochrome P450 3A4 (Homo sapiens, UniProt P08684). Conditions: bti-tn-5b1-4. Further: in other assays of this panel Not Active means under 50% inhibition at 10 µM.

Cytochrome P450 3A4, sequence (P08684 whole entry): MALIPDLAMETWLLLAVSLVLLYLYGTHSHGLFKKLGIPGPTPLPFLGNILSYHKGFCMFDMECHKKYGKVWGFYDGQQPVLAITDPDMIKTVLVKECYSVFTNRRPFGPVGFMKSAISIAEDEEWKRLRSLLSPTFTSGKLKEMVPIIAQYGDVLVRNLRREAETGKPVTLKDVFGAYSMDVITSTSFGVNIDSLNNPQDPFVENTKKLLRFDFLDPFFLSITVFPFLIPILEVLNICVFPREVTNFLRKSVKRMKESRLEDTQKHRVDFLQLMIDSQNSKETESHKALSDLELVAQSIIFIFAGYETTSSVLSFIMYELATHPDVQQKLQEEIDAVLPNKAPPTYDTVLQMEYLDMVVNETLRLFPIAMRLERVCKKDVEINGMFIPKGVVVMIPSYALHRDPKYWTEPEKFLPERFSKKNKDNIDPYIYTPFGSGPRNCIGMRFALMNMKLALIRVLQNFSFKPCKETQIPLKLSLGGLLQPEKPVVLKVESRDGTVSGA
Platelet-activating factor receptor, sequence (P25105 whole entry): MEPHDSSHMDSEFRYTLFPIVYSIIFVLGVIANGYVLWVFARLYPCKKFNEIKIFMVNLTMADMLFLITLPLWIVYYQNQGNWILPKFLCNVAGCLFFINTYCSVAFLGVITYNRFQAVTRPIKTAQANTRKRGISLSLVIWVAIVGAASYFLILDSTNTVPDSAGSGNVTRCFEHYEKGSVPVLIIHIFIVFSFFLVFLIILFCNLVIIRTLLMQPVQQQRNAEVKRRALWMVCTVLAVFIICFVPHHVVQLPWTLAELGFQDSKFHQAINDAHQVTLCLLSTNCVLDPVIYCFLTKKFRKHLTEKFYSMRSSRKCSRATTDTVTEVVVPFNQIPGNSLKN
Beta-2 adrenergic receptor, sequence (P07550 whole entry): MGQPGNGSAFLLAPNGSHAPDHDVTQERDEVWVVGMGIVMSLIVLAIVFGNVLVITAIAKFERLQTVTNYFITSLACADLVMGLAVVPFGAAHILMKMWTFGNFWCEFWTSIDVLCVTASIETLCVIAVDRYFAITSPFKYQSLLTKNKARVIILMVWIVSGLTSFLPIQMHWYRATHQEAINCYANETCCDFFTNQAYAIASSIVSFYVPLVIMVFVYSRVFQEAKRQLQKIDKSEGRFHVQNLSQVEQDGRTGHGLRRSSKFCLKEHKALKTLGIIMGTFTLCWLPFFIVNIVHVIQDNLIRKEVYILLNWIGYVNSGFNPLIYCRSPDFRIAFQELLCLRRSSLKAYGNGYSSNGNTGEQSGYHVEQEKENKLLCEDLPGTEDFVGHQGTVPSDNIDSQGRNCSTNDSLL

Broadly, the pIC50 is the IC50 on a negative log10 scale, so that one unit is a factor of ten. What is called pKi is −log10 of the Ki, conventionally taken in molar units. Turning to `CCCCCCCCCc1ccc(O)cc1` [4-NONYLPHENOL], the IC50 entry in series [1], in series [2], in [4], in series [5], in [6] and in series [7] was “Not Active” throughout. Further, the IC50 entry (in series [8]; in series [9]; against Caspase-1; in [10]; against Cytochrome P450 3A4) was “Not Active” each time. Besides, the Ki entry (in series [2]; in series [4]; in [6]; in [7]; on Cytochrome P450 3A4) was “Not Active” in each case. In addition, the pIC50 in series [3] (read-out: IC50) was 5.59. The pKi in [3] (read-out: Ki) is 5.87.
Turning to `COc1ccc2c(c1)c(CC(=O)OCC(=O)O)c(C)n2C(=O)c1ccc(Cl)cc1` [ACEMETACIN], the IC50 entry in [1], in series [2], in series [3], in series [4], in series [5] and in [6] was “Not Active” each time. For the same molecule, the IC50 result (in series [7]; in [8]; in series [9]; against Caspase-1; in [10]; on Cytochrome P450 3A4) was “Not Active” throughout. In addition, the Ki entry (in series [2]; in series [4]; in [6]; in series [7]; at Cytochrome P450 3A4) was “Not Active” throughout.
Turning to `Cc1[nH]cnc1CN1CCc2c(c3ccccc3n2C)C1=O` [ALOSETRON], the IC50 entry in series [1], in series [2], in [3], in series [4], in series [5] and in [6] was “Not Active” throughout. Also, the IC50 entry (in series [7]; in series [8]; in series [9]; against Caspase-1; in [10]; at Cytochrome P450 3A4) was “Not Active” each time. For the same molecule, the Ki result (in series [2]; in series [4]; in series [6]; in [7]; on Cytochrome P450 3A4) was “Not Active” throughout.
As for `O=c1cc(-c2ccccc2)oc2c1ccc1ccccc12` [ALPHA-NAPHTHOFLAVONE], the IC50 entry in series [1], in series [2], in [3], in [4], in series [5] and in [6] was “Not Active” in each case. Besides, the IC50 result (in series [7]; in [8]; in series [9]; against Caspase-1; in [10]; on Cytochrome P450 3A4) was “Not Active” throughout. Moreover, the Ki result (in [2]; in [4]; in [6]; in series [7]; at Cytochrome P450 3A4) was “Not Active” throughout.
On to `NCC[C@H](O)C(=O)N[C@@H]1C[C@H](N)[C@@H](O[C@H]2O[C@H](CN)[C@@H](O)[C@H](O)[C@H]2O)[C@H](O)[C@H]1O[C@H]1O[C@H](CO)[C@@H](O)[C@H](N)[C@H]1O` [AMIKACIN], for which the IC50 result in [1], in [2], in [3], in [4], in [5] and in series [6] was “Not Active” throughout. The IC50 result (in [7]; in series [8]; in series [9]; against Caspase-1; in series [10]; against Cytochrome P450 3A4) was “Not Active” throughout. Besides, the Ki result (in [2]; in [4]; in series [6]; in [7]; on Cytochrome P450 3A4) was “Not Active” throughout.
Turning to `CC1(C)S[C@@H]2[C@H](NC(=O)[C@H](N)c3ccc(O)cc3)C(=O)N2[C@H]1C(=O)O` [AMOXICILLIN], the IC50 entry in series [1], in [2], in series [3], in [4], in [5] and in series [6] was “Not Active” in each case. Moreover, the IC50 entry (in [7]; in [8]; in series [9]; against Caspase-1; in series [10]; against Cytochrome P450 3A4) was “Not Active” in each case. The Ki result (in [2]; in [4]; in [6]; in series [7]; at Cytochrome P450 3A4) was “Not Active” throughout.
